Twelve molecules from patent US10160724B2, “Tetrahydropyridine derivatives and their use as antibacterial agents” (Dong-A St Co., Ltd., priority 2016, dated 2018) can be followed below.

What all share (experiment): In vitro antibiotic activity, agar dilution method (Mueller-Hinton agar, NCCLS)
Format in all cases: cell-based

For one experiment, the system named is E. coli ATCC 25922. As to conditions: Escherichia coli, ATCC25922; agar dilution, Mueller-Hinton agar; read-out: MIC for E. coli ATCC 25922. A digest of the protocol: (§1)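 MICs determined by agar dilution on Mueller-Hinton agar following NCCLS M7 guidance, against E. coli ATCC 25922, K. pneumoniae ATCC 29665 and P. aeruginosa PAO1.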
For a further experiment, the system named is P. aeruginosa PAO1. As to conditions: Pseudomonas aeruginosa, PAO1; agar dilution, Mueller-Hinton agar; read-out: MIC for P. aeruginosa PAO1. A digest of the protocol:
as §1

Another experiment has as its system K. pneumoniae ATCC 29665. As to conditions: Klebsiella pneumoniae, ATCC29665; agar dilution, Mueller-Hinton agar; read-out: MIC for K. pneumoniae ATCC 29665. A digest of the protocol:
as §1

Converted amounts (≈) assume the structure as drawn. A value given as a limit tells only on which side of the number the result lay.

Consider `CC(CCN1CC=C(c2ccc(C#CCO)cc2)CC1)(C(=O)NO)S(C)(=O)=O` (stereo not drawn) [Example 22, N-hydroxy-4-(4-(4-(3-hydroxyprop-1-yn-1-yl)phenyl)-3,6-dihydropyridin-1(2H)-yl)-2-methyl-2-(methylsulfonyl)butanamide], for which the results for the MIC with E. coli ATCC 25922, in the experiment with P. aeruginosa PAO1 and in the experiment with K. pneumoniae ATCC 29665 were 1 to 8 µg/mL (≈ 2.46 to 19.7 µM), 1 to 8 µg/mL (≈ 2.46 to 19.7 µM) and more than 16 µg/mL, respectively.

Consider `CC(CCN1CC=C(c2ccc(C#CCCCO)cc2)CC1)(C(=O)NO)S(C)(=O)=O` (stereo not drawn) [Example 18, N-hydroxy-4-(4-(4-(5-hydroxypent-1-yn-1-yl)phenyl)-3,6-dihydropyridin-1(2H)-yl)-2-methyl-2-(methylsulfonyl)butanamide], for which the MIC is less than 1 µg/mL in the experiment on E. coli ATCC 25922, 1 to 8 µg/mL (≈ 2.3 to 18.4 µM) in the experiment with P. aeruginosa PAO1 and 1 to 8 µg/mL (≈ 2.3 to 18.4 µM) with K. pneumoniae ATCC 29665.

Take `CC(CCN1CC=C(c2ccc(-c3ccc(C#N)cc3)cc2)CC1)(C(=O)NO)S(C)(=O)=O` (stereo not drawn) [Example 66, 4-(4-(4′-cyano-[1,1′-biphenyl]-4-yl)-3,6-dihydropyridin-1(2H)-yl)-N-hydroxy-2-methyl-2-(methylsulfonyl)butanamide]: the MIC in the experiment with E. coli ATCC 25922 is less than 1 µg/mL; with P. aeruginosa PAO1, more than 16 µg/mL; in the experiment with K. pneumoniae ATCC 29665, 1 to 8 µg/mL (≈ 2.2 to 17.6 µM).

`CN(C)CC#Cc1ccc(C2=CCN(CCC(C)(C(=O)NO)S(C)(=O)=O)CC2)cc1` (stereo not drawn) [Example 7, 4-(4-(4-(3-(dimethylamino)prop-1-yn-1-yl)phenyl)-3,6-dihydropyridin-1(2H)-yl)-N-hydroxy-2-methyl-2-(methylsulfonyl)butanamide]: the MIC with E. coli ATCC 25922, with P. aeruginosa PAO1 and in the experiment on K. pneumoniae ATCC 29665 was 1 to 8 µg/mL (≈ 2.31 to 18.5 µM) throughout.

`CC(CCN1CC=C(c2ccc(C#CCN3CCC[C@H]3CO)cc2)CC1)(C(=O)NO)S(C)(=O)=O` (stereo partly drawn) [Example 17, N-hydroxy-4-(4-(4-(3-((S)-2-(hydroxymethyl)pyrrolidin-1-yl)prop-1-yn-1-yl)phenyl)-3,6-dihydropyridin-1(2H)-yl)-2-methyl-2-(methylsulfonyl)butanamide]: the MIC is more than 16 µg/mL in the experiment on E. coli ATCC 25922, 1 to 8 µg/mL (≈ 2.04 to 16.3 µM) in the experiment on P. aeruginosa PAO1 and 8 to 16 µg/mL (≈ 16.3 to 32.7 µM) with K. pneumoniae ATCC 29665.

Regarding `CCS(=O)(=O)c1ccc(-c2ccc(C3=CCN(CCC(C)(C(=O)NO)S(C)(=O)=O)CC3)cc2)cc1.Cl` (stereo not drawn) [Example 73, 4-(4-(4′-(ethylsulfonyl)-[1,1′-biphenyl]-4-yl)-3,6-dihydropyridin-1(2H)-yl)-N-hydroxy-2-methyl-2-(methylsulfonyl)butanamide hydrochloride], the MIC was less than 1 µg/mL in the experiment on E. coli ATCC 25922, 1 to 8 µg/mL in the experiment on P. aeruginosa PAO1 and 1 to 8 µg/mL with K. pneumoniae ATCC 29665.

For `CC(CCN1CC=C(c2ccc(C#Cc3ccc([N+](=O)[O-])cc3)cc2)CC1)(C(=O)NO)S(C)(=O)=O` (stereo not drawn) [Example 35, N-hydroxy-2-methyl-2-(methylsulfonyl)-4-(4-(4-((4-nitrophenyl)ethynyl)phenyl)-3,6-dihydropyridin-1(2H)-yl)butanamide], the MIC in the experiment with E. coli ATCC 25922, in the experiment on P. aeruginosa PAO1 and in the experiment on K. pneumoniae ATCC 29665 was more than 16 µg/mL throughout.

Turning to `CC(CCN1CC=C(c2ccc(C#CCCO)cc2)CC1)(C(=O)NO)S(C)(=O)=O` (stereo not drawn) [Example 5, N-hydroxy-4-(4-(4-(4-hydroxybut-1-yn-1-yl)phenyl)-3,6-dihydropyridin-1(2H)-yl)-2-methyl-2-(methylsulfonyl)butanamide], the values for the MIC with E. coli ATCC 25922, in the experiment on P. aeruginosa PAO1 and in the experiment on K. pneumoniae ATCC 29665 were 1 to 8 µg/mL (≈ 2.38 to 19 µM), 1 to 8 µg/mL (≈ 2.38 to 19 µM) and 8 to 16 µg/mL (≈ 19 to 38 µM), respectively.

As for `CCCC#Cc1ccc(C2=CCN(CCC(C)(C(=O)NO)S(C)(=O)=O)CC2)cc1` (stereo not drawn) [Example 11, N-hydroxy-2-methyl-2-(methylsulfonyl)-4-(4-(4-(pent-1-yn-1-yl)phenyl)-3,6-dihydropyridin-1(2H)-yl)butanamide], the MIC with E. coli ATCC 25922 was less than 1 µg/mL; in the experiment on P. aeruginosa PAO1, 1 to 8 µg/mL (≈ 2.39 to 19.1 µM); in the experiment with K. pneumoniae ATCC 29665, 1 to 8 µg/mL (≈ 2.39 to 19.1 µM).

As for `CC(CCN1CC=C(c2ccc(C#Cc3cccs3)cc2)CC1)(C(=O)NO)S(C)(=O)=O` (stereo not drawn) [Example 34, N-hydroxy-2-methyl-2-(methylsulfonyl)-4-(4-(4-(thiophen-2-ylethynyl)phenyl)-3,6-dihydropyridin-1(2H)-yl)butanamide], the MIC is less than 1 µg/mL with E. coli ATCC 25922, 1 to 8 µg/mL (≈ 2.18 to 17.4 µM) with P. aeruginosa PAO1 and 1 to 8 µg/mL (≈ 2.18 to 17.4 µM) in the experiment with K. pneumoniae ATCC 29665.

As to `CCN(CC)CC#Cc1ccc(C2=CCN(CCC(C)(C(=O)NO)S(C)(=O)=O)CC2)cc1` (stereo not drawn) [Example 16, 4-(4-(4-(3-(diethylamino)prop-1-yn-1-yl)phenyl)-3,6-dihydropyridin-1(2H)-yl)-N-hydroxy-2-methyl-2-(methylsulfonyl)butanamide], the MIC with E. coli ATCC 25922, with P. aeruginosa PAO1 and in the experiment with K. pneumoniae ATCC 29665 was 1 to 8 µg/mL (≈ 2.17 to 17.3 µM) throughout.

For the molecule `CC(CCN1CC=C(c2ccc(C#CCCCCl)cc2)CC1)(C(=O)NO)S(C)(=O)=O` (stereo not drawn) [Example 14, 4-(4-(4-(5-chloropent-1-yn-1-yl)phenyl)-3,6-dihydropyridin-1(2H)-yl)-N-hydroxy-2-methyl-2-(methylsulfonyl)butanamide], the values for the MIC in the experiment on E. coli ATCC 25922, with P. aeruginosa PAO1 and in the experiment with K. pneumoniae ATCC 29665 were less than 1 µg/mL, 1 to 8 µg/mL (≈ 2.21 to 17.7 µM) and 1 to 8 µg/mL (≈ 2.21 to 17.7 µM), respectively.
